According to ChEMBL document CHEMBL1201862, “PubChem BioAssay data set” (2004):
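Cells were grown in 96-well plates and exposed to each compound for 48 hours at five concentrations; endpoints were interpolated linearly between bracketing concentrations, or set to the highest concentration if not reached. GI50: concentration for 50% inhibition of growth.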 Calls of active or inactive are those of the source. Rule as the data show it: active = GI50 up to about 1.1 µM and inactive = higher.

Legend:
Assay in all cases: NCI anticancer screen, dose series, 48 h
[1] = system: NCI-H460
[2] = system: UACC-257
[3] = system: SR
[4] = system: T47D
[5] = system: Malme-3M
[6] = system: HOP-62
[7] = system: KM12
[8] = system: OVCAR-3
[9] = system: KM-20L2
[10] = system: COLO 205
[11] = system: M14
[12] = system: A549
[13] = system: NCI/ADR-RES
[14] = system: DMS-273
[15] = system: SK-MEL-2
[16] = system: RPMI-8226
[17] = system: SN12C
[18] = system: MDA-MB-231
[19] = system: UO-31
[20] = system: MCF7
[21] = system: NCI-H23
[22] = system: DU-145
[23] = system: SNB-19
[24] = system: IGROV-1
[25] = system: M19-MEL
[26] = system: UACC-62
[27] = system: K562
[28] = system: SF-539
[29] = system: DLD-1
[30] = system: DMS-114
[31] = system: CCRF-CEM
[32] = system: RXF 393
[33] = system: OVCAR-5
[34] = system: SF-268
[35] = system: NCI-H226
[36] = system: BT-549
[37] = system: MDA-N
[38] = system: PC-3
[39] = system: A498
[40] = system: OVCAR-4
[41] = system: HCT-15
[42] = system: SK-MEL-28
[43] = system: HOP-18
[44] = system: SK-OV-3
[45] = system: HCC 2998
[46] = system: SNB-75
[47] = system: SW-620
[48] = system: MOLT-4
[49] = system: HT-29
[50] = system: Hs-578T
[51] = system: LOX IMVI
[52] = system: TK-10
[53] = system: MDA-MB-435
[54] = system: CAKI-1
[55] = system: EKVX
[56] = system: HL-60
[57] = system: SNB-78
[58] = system: U-251
[59] = system: NCI-H522
[60] = system: 786-0
[61] = system: LXFL 529
[62] = system: SK-MEL-5
[63] = system: SF-295
[64] = system: HOP-92
[65] = system: OVCAR-8

With C/C1=C\[C@@H](O)C(=O)/C=C/C=C\c2csc(n2)[C@@H](C)NC(=O)C[C@@]2(CC1)[S+]([O-])SC(=O)[C@]2(C)O (stereo not given in full) [LEINAMYCIN] the GI50 [1] was 9.86 nM (active), the GI50 [2] was 29.8 nM (active) and the GI50 [3] was 3.27 nM (active). The GI50 [4] was 1.02 nM (active), the GI50 [5] was 6.56 nM (active) and the GI50 [6] was 130 nM (active). The GI50 [7] was 81.3 nM (active), the GI50 [8] was 11.2 nM (active) and the GI50 [9] was 88.1 nM (active). The GI50 [10] was 14.9 nM (active), the GI50 [11] was 6.92 nM (active) and the GI50 [12] was 120 nM (active). For the same compound, the GI50 [13] was 13.7 nM (active), the GI50 [14] was 13.5 nM (active) and the GI50 [15] was 6.01 nM (active). For the same compound, the GI50 [16] was 4.45 nM (active), the GI50 [17] was 20.3 nM (active) and the GI50 [18] was 32.1 nM (active). For the same compound, the GI50 [19] was 30.8 nM (active), the GI50 [20] was 0.499 nM (active) and the GI50 [21] was 5.94 nM (active). For the same compound, the GI50 [22] was 6.79 nM (active), the GI50 [23] was 284 nM (active) and the GI50 [24] was 200 nM (active). For the same compound, the GI50 [25] was 34.4 nM (active), the GI50 [26] was 12.4 nM (active) and the GI50 [27] was 4.56 nM (active). For the same compound, the GI50 [28] was 9.68 nM (active), the GI50 [29] was 20.9 nM (active) and the GI50 [30] was 35.3 nM (active). The GI50 [31] was 1.05 nM (active), the GI50 [32] was 12.7 nM (active) and the GI50 [33] was 104 nM (active). The GI50 [34] was 27.2 nM (active), the GI50 [35] was 206 nM (active) and the GI50 [36] was 1.51 nM (active). The GI50 [37] was 10.1 nM (active), the GI50 [38] was 12.8 nM (active) and the GI50 [39] was 10 nM (active). The GI50 [40] was 21.7 nM (active), the GI50 [41] was 13.4 nM and the GI50 [42] was 21.4 nM (active). For the same compound, the GI50 [43] was 30.1 nM (active), the GI50 [44] was 138 nM (active) and the GI50 [45] was 184 nM (active). The GI50 [46] was 25.2 nM (active), the GI50 [47] was 2.04 nM (active) and the GI50 [48] was 4.86 nM (active). For the same compound, the GI50 [49] was 40 nM (active), the GI50 [50] was 33.7 nM (active) and the GI50 [51] was 11.6 nM (active). For the same compound, the GI50 [52] was 26.6 nM (active), the GI50 [53] was 18.7 nM (active) and the GI50 [54] was 1.33 nM (active). The GI50 [55] was 261 nM (active), the GI50 [56] was 0.752 nM (active) and the GI50 [57] was 10 nM (active). For the same compound, the GI50 [58] was 45.4 nM (active), the GI50 [59] was 1.88 nM (active) and the GI50 [60] was 3.91 nM (active). The GI50 [61] was 13.9 nM (active), the GI50 [62] was 6.73 nM (active) and the GI50 [63] was 44.6 nM (active). The GI50 [64] was 2.28 nM (active) and the GI50 [65] was 17.4 nM (active).
